Test results as given in the supplement of paper PMC12317010.
Where a name gives a salt, the structure may show the parent alone.

Assay: collision cross section in nitrogen (drift tube, single-field); higher = larger gas-phase ion size
[1] = ion type: [M+H], ion source: APCI, ion mode: Positive
[2] = ion type: [M+H], ion source: ESI, ion mode: Positive
[3] = ion type: [M-H], ion source: ESI, ion mode: Negative
[4] = ion type: [M+], ion source: APCI, ion mode: Positive
[5] = ion type: [M+Na], ion source: ESI, ion mode: Positive
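Also: chemical standards at 10 µM analysed by drift tube IMS-QTOF MS in about 3.95 torr nitrogen, mean of duplicate injections differing ≤1%, mass error below 10 ppm.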

Structure (SMILES)	collision cross section in nitrogen [1]	collision cross section in nitrogen [2]	collision cross section in nitrogen [3]	also measured
CCCCCCCCn1sccc1=O [2-n-Octyl-4-isothiazolin-3-one]	158.3 Å²	158 Å²	–	–
COc1ccc(O)c(C(C)(C)C)c1 [2-tert-Butyl-4-methoxyphenol]	–	–	142.3 Å²	–
Cc1cn([C@H]2C[C@H](N=[N+]=[N-])[C@@H](CO)O2)c(=O)[nH]c1=O [3'-Azido-3'-deoxythymidine]	–	–	159.9 Å²	–
CC(C)(c1cc(Br)c(O)c(Br)c1)c1cc(Br)c(O)c(Br)c1 [3,3',5,5'-Tetrabromobisphenol A]	–	–	193.4 Å²	–
Cc1cc(-c2cc(C)c(N)c(C)c2)cc(C)c1N [3,3',5,5'-Tetramethylbenzidine]	175.7 Å²	176 Å²	–	collision cross section in nitrogen [4]: 162.4 Å²
N#CCCOCCOCCC#N [3,3'-(Ethylenedioxy)dipropiononitrile]	–	–	–	collision cross section in nitrogen [5]: 143 Å²
Nc1ccc(-c2ccc(N)c(Cl)c2)cc1Cl [3,3'-Dichlorobenzidine dihydrochloride]	–	167.6 Å²	–	collision cross section in nitrogen [4]: 153.3 Å²
Cc1cc(-c2ccc(N)c(C)c2)ccc1N [3,3'-Dimethylbenzidine dihydrochloride]	151.9 Å²	166.2 Å²	–	collision cross section in nitrogen [4]: 150.7 Å²
Cc1cc(-c2ccc(N)c(C)c2)ccc1N [3,3'-Dimethylbenzidine]	166.1 Å²	166.5 Å²	–	collision cross section in nitrogen [4]: 150.8 Å²
Cc1cc(C(C)(C)c2ccc(O)c(C)c2)ccc1O [3,3'-Dimethylbisphenol A]	–	–	172.9 Å²	–
Nc1cccc(S(=O)(=O)c2cccc(N)c2)c1 [3,3'-Sulphonyldianiline]	–	–	–	collision cross section in nitrogen [5]: 172.6 Å²
NCCCOCCOCCOCCCN [3,3'-[Oxybis(ethane-2,1-diyloxy)]dipropan-1-amine]	147.9 Å²	148.3 Å²	–	collision cross section in nitrogen [5]: 150.3 Å²
Nc1ccc(Oc2ccc(N)c(N)c2)cc1 [3,4,4'-Triaminodiphenyl ether]	159.9 Å²	–	–	–
N#Cc1nc(Cl)c(Cl)c(Cl)c1Cl [3,4,5,6-Tetrachloropyridine-2-carbonitrile]	–	142.6 Å²	–	–
Cc1ccc(O)cc1C [3,4-Dimethylphenol]	–	–	128.7 Å²	–
Nc1cc(N)cc(C(=O)O)c1 [3,5-Diaminobenzoic acid]	–	–	136.6 Å²	–

Structure (SMILES)	collision cross section in nitrogen [1]	collision cross section in nitrogen [2]	collision cross section in nitrogen [3]	also measured
O=C(O)c1cc(Br)c(O)c(Br)c1 [3,5-Dibromo-4-hydroxybenzoic acid]	–	–	136.4 Å²	–
O=C1N=CC(Cl)=CC1Cl (configuration not stated) [3,5-Dichloro-2-pyridone]	–	–	123.4 Å²	–
O=C(O)c1cc(Cl)cc(Cl)c1O [3,5-Dichlorosalicylic acid]	–	–	130.7 Å²	–
Cc1cc(C)cc(O)c1 [3,5-Dimethylphenol]	–	–	127.3 Å²	–
COCCOCCOCCOCCOCCO [3,6,9,12,15-Pentaoxahexadecanol]	151.8 Å²	–	–	collision cross section in nitrogen [5]: 153.3 Å²
CCCCOCCOCCOCCOCCO [3,6,9,12-Tetraoxahexadecan-1-ol]	157.1 Å²	–	–	collision cross section in nitrogen [5]: 160.4 Å²
C=COCCOCCOCCOC=C [3,6,9,12-Tetraoxatetradeca-1,13-diene]	–	–	–	collision cross section in nitrogen [5]: 143.4 Å²
CC(=O)CCCCn1c(=O)c2c(ncn2C)n(C)c1=O [3,7-Dihydro-3,7-dimethyl-1-(5-oxohexyl)-1H-Purine-2,6-dione]	–	160.9 Å²	–	collision cross section in nitrogen [5]: 172 Å²
CCC(C)(CCCC(C)C)OC(C)=O (configuration not stated) [3,7-Dimethyloctan-3-yl acetate]	–	–	154.8 Å²	–
OCCCc1cccnc1 [3-(3-Pyridyl)-1-propanol]	128 Å²	128.4 Å²	–	–
NCc1cccnc1 [3-(Aminomethyl)pyridine]	118.5 Å²	119.6 Å²	–	–
ClCc1cccnc1 [3-(Chloromethyl)pyridine hydrochloride]	123.8 Å²	–	–	–
CCCCCCCCCCC=CC1CC(=O)OC1=O (configuration not stated) [3-(Dodecenyl)dihydro-2,5-furandione]	–	–	170.1 Å²	–
CCCCCCCCOCCCN [3-(Octyloxy)propan-1-amine]	156.9 Å²	156.2 Å²	–	–
CCOc1cc(C=O)ccc1O [3-Ethoxy-4-hydroxybenzaldehyde]	–	–	133.6 Å²	–
COc1cc(C)cc(O)c1 [3-Methoxy-5-methylphenol]	–	–	130.1 Å²	–

Further lines, with some results ahead:

collision cross section in nitrogen [1]	collision cross section in nitrogen [2]	collision cross section in nitrogen [3]	Structure (SMILES)	also measured
–	–	144.6 Å²	CCc1ccc(O)c(C(C)(C)C)c1 [2-tert-Butyl-4-ethylphenol]	–
–	–	138.7 Å²	Cc1ccc(C(C)(C)C)c(O)c1 [2-tert-Butyl-5-methylphenol]	–
–	–	138.2 Å²	Cc1cccc(C(C)(C)C)c1O [2-tert-Butyl-6-methylphenol]	–
137.3 Å²	137.2 Å²	–	COc1ccc(NC(C)=O)cc1N [3'-Amino-4'-methoxyacetanilide]	–
–	162.7 Å²	165.1 Å²	Cc1ccc(NC(=O)N(C)C)cc1NC(=O)N(C)C [3,3'-(4-Methylbenzene-1,3-diyl)bis(1,1-dimethylurea)]	collision cross section in nitrogen [5]: 167.6 Å²
–	–	127.6 Å²	O=C1CCc2ccccc2O1 [3,4-Dihydrocoumarin]	–
–	205.3 Å²	198.1 Å²	N[C@@H](Cc1cc(I)c(Oc2ccc(O)c(I)c2)c(I)c1)C(=O)O [3,5,3'-Triiodothyronine]	–
–	204.8 Å²	198.1 Å²	N[C@@H](Cc1cc(I)c(Oc2ccc(O)c(I)c2)c(I)c1)C(=O)O [3,5,3′-Triiodo-L-thyronine monosodium salt]	–
163.4 Å²	–	–	CCCC1C(CC)=CC(CC)=CN1c1ccccc1 (configuration not stated) [3,5-Diethyl-1-phenyl-2-propyl-1,2-dihydropyridine]	–
–	161.1 Å²	175.5 Å²	CCN(Cc1cccc(S(=O)(=O)O)c1)c1ccccc1 [3-((Ethylphenylamino)methyl)benzenesulfonic acid]	collision cross section in nitrogen [5]: 174.9 Å²
144.7 Å²	144.3 Å²	–	CCN(CCC#N)c1cccc(C)c1 [3-(Ethyl(3-methylphenyl)amino)propanenitrile]	collision cross section in nitrogen [4]: 143.6 Å²
–	–	128.7 Å²	O=[N+]([O-])c1ccc(O)cc1C(F)(F)F [3-(Trifluoromethyl)-4-nitrophenol]	–
–	–	132.4 Å²	O=C(O)c1cccc(C(F)(F)F)c1 [3-(Trifluoromethyl)benzoic acid]	–
–	–	121.3 Å²	Oc1cccc(C(F)(F)F)c1 [3-(Trifluoromethyl)phenol]	–
123.6 Å²	–	–	CC(=O)c1cccnc1 [3-Acetylpyridine]	–
–	–	135.4 Å²	Nc1cc(C(=O)O)ccc1Cl [3-Amino-4-chlorobenzoic acid]	–

collision cross section in nitrogen [1]	collision cross section in nitrogen [2]	collision cross section in nitrogen [3]	Structure (SMILES)	also measured
–	138.4 Å²	–	Cc1c(Cl)c(=O)oc2cc(O)ccc12 [3-Chloro-7-hydroxy-4-methyl-2-benzopyrone]	–
–	–	143.8 Å²	Oc1ccc(-c2ccccc2)cc1Cl [3-Chloro[1,1′-biphenyl]-4-ol]	–
–	–	127.5 Å²	CCc1cccc(O)c1 [3-Ethylphenol]	–
121.7 Å²	122.1 Å²	119.9 Å²	OCc1ncccc1O [3-Hydroxy-2-(hydroxymethyl)pyridine hydrochloride]	–
160.9 Å²	160.7 Å²	160.7 Å²	O=C(Nc1ccccc1)c1cc2ccccc2cc1O [3-Hydroxy-2-naphthanilide]	–
–	–	135.6 Å²	O=C(O)c1cc2ccccc2cc1O [3-Hydroxy-2-naphthoic acid]	–
167.3 Å²	167.5 Å²	168.9 Å²	COc1ccccc1NC(=O)c1cc2ccccc2cc1O [3-Hydroxy-2-naphthoic o-anisidide]	collision cross section in nitrogen [5]: 181.8 Å²
155.5 Å²	155.6 Å²	–	CCOc1ccc(NC(=O)CC(C)O)cc1 (configuration not stated) [3-Hydroxy-4-butyrophenetidide]	collision cross section in nitrogen [5]: 169.5 Å²
–	–	170.2 Å²	O=C(Nc1cccc([N+](=O)[O-])c1)c1cc2ccccc2cc1O [3-Hydroxy-N-(3-nitrophenyl)naphthalene-2-carboxamide]	–
–	–	142.4 Å²	Oc1ccc2c(c1)-c1ccccc1C2 [3-Hydroxyfluorene]	–
–	–	122.5 Å²	Oc1cccc(I)c1 [3-Iodophenol]	–
–	–	132.9 Å²	CC(C)c1cccc(O)c1 [3-Isopropylphenol]	–
–	142.9 Å²	144.4 Å²	CC1=NN(c2ccc(C)cc2)C(=O)C1 [3-Methyl-1-p-tolyl-5-pyrazolone]	collision cross section in nitrogen [5]: 156.9 Å²
136.3 Å²	136.5 Å²	136.1 Å²	Cc1cc(N)n(-c2ccccc2)n1 [3-Methyl-1-phenyl-1H-pyrazol-5-amine]	–
130.4 Å²	131.2 Å²	–	CC1COc2ccccc2N1 (configuration not stated) [3-Methyl-3,4-dihydro-2H-1,4-benzoxazine]	–
